Reference: patent US20220041681A1 (MEDIMMUNE LIMITED, priority 2016, published 2022)

Tested on: Healthy volunteer
Experiment: Phase 1 single-ascending dose study
Details: for TEAE: Abdominal distension / TEAE: Abdominal pain / TEAE: Application site erosion / TEAE: Arrhythmia / TEAE: Atrioventricular block second degree / TEAE: Cardiac Disorders / TEAE: Decreased appetite / TEAE: Diarrhea / TEAE: Dizziness / TEAE: Gastrointestinal Disorders / TEAE: Headache / TEAE: Immune System Disorders / TEAE: Injury associated with device / TEAE: Injury poisoning and procedural complications / TEAE: Metabolism and nutrition disorders / TEAE: Musculoskeletal and connective tissue disorders / TEAE: Musculoskeletal chest pain / TEAE: Nasopharyngitis / TEAE: Nausea / TEAE: Nervous system disorders / TEAE: Oropharyngeal pain / TEAE: Procedural dizziness / TEAE: Respiratory, thoracic and mediastinal disorders / TEAE: Seasonal allergy / TEAE: Subjects with at least one event / TEAE: Ventricular extrasystoles / TEAE: Vomiting: N = 6, subjects n (%)

For CCCCCCCCCCCCCCCC(=O)N[C@@H](CCC(=O)NCCCC[C@H](NC(=O)[C@H](CC(=O)O)NC(=O)[C@H](CO)NC(=O)C(NC(=O)[C@H](Cc1ccccc1)NC(=O)C(NC(=O)CNC(=O)[C@H](CCC(N)=O)NC(=O)[C@H](CO)NC(=O)[C@@H](N)Cc1cnc[nH]1)[C@@H](C)O)[C@@H](C)O)C(=O)N[C@@H](CO)C(=O)N[C@@H](CCC(=O)O)C(=O)N[C@@H](Cc1ccc(O)cc1)C(=O)N[C@@H](CC(C)C)C(=O)N[C@@H](CC(=O)O)C(=O)N[C@@H](CO)C(=O)N[C@@H](CCC(=O)O)C(=O)N[C@@H](CCCNC(=N)N)C(=O)N[C@@H](C)C(=O)N[C@@H](CCCNC(=N)N)C(=O)N[C@@H](CC(=O)O)C(=O)N[C@@H](Cc1ccccc1)C(=O)N[C@H](C(=O)N[C@@H](C)C(=O)N[C@@H](Cc1c[nH]c2ccccc12)C(=O)N[C@@H](CC(C)C)C(=O)N[C@@H](CCC(=O)O)C(=O)N[C@@H](C)C(=O)NCC(=O)NCC(=O)O)C(C)C)C(=O)O (stereo partly shown) [Peptide G933], the “TEAE: Abdominal distension” value (5 μg) was 0, the “TEAE: Abdominal pain” value (5 μg) was 0 and the “TEAE: Application site erosion” value (5 μg) was 0. For the same compound, the “TEAE: Arrhythmia” value (5 μg) was 0, the “TEAE: Atrioventricular block second degree” value (5 μg) was 0 and the “TEAE: Cardiac Disorders” value (5 μg) was 0. For the same compound, the “TEAE: Decreased appetite” value (5 μg) was 0, the “TEAE: Diarrhea” value (5 μg) was 0 and the “TEAE: Dizziness” value (5 μg) was 0. The “TEAE: Gastrointestinal Disorders” value (5 μg) was 0, the “TEAE: Headache” value (5 μg) was 1 (16.7%) and the “TEAE: Immune System Disorders” value (5 μg) was 0. For the same compound, the “TEAE: Injury associated with device” value (5 μg) was 0, the “TEAE: Injury poisoning and procedural complications” value (5 μg) was 0 and the “TEAE: Metabolism and nutrition disorders” value (5 μg) was 0. For the same compound, the “TEAE: Musculoskeletal and connective tissue disorders” value (5 μg) was 0, the “TEAE: Musculoskeletal chest pain” value (5 μg) was 0 and the “TEAE: Nasopharyngitis” value (5 μg) was 1 (16.7%). For the same compound, the “TEAE: Nausea” value (5 μg) was 0, the “TEAE: Nervous system disorders” value (5 μg) was 1 (16.7%) and the “TEAE: Oropharyngeal pain” value (5 μg) was 0. The “TEAE: Procedural dizziness” value (5 μg) was 0, the “TEAE: Respiratory, thoracic and mediastinal disorders” value (“TEAE: Respiratory” below) (5 μg) was 0 and the “TEAE: Seasonal allergy” value (5 μg) was 0. For the same compound, the “TEAE: Subjects with at least one event” value (5 μg) was 2 (33.3%), the “TEAE: Ventricular extrasystoles” value (5 μg) was 0 and the “TEAE: Vomiting” value (5 μg) was 0. The “TEAE: Abdominal distension” value (10 μg) was 0, the “TEAE: Abdominal pain” value (10 μg) was 1 (16.7%) and the “TEAE: Application site erosion” value (10 μg) was 0. The “TEAE: Arrhythmia” value (10 μg) was 0, the “TEAE: Atrioventricular block second degree” value (10 μg) was 1 (16.7%) and the “TEAE: Cardiac Disorders” value (10 μg) was 1 (16.7%). The “TEAE: Decreased appetite” value (10 μg) was 0, the “TEAE: Diarrhea” value (10 μg) was 1 (16.7%) and the “TEAE: Dizziness” value (10 μg) was 1 (16.7%). For the same compound, the “TEAE: Gastrointestinal Disorders” value (10 μg) was 1 (16.7%), the “TEAE: Headache” value (10 μg) was 0 and the “TEAE: Immune System Disorders” value (10 μg) was 0. For the same compound, the “TEAE: Injury associated with device” value (10 μg) was 0, the “TEAE: Injury poisoning and procedural complications” value (10 μg) was 0 and the “TEAE: Metabolism and nutrition disorders” value (10 μg) was 0. The “TEAE: Musculoskeletal and connective tissue disorders” value (10 μg) was 0, the “TEAE: Musculoskeletal chest pain” value (10 μg) was 0 and the “TEAE: Nasopharyngitis” value (10 μg) was 0. The “TEAE: Nausea” value (10 μg) was 0, the “TEAE: Nervous system disorders” value (10 μg) was 1 (16.7%) and the “TEAE: Oropharyngeal pain” value (10 μg) was 0. The “TEAE: Procedural dizziness” value (10 μg) was 0, the “TEAE: Respiratory” value (10 μg) was 0 and the “TEAE: Seasonal allergy” value (10 μg) was 0. The “TEAE: Subjects with at least one event” value (10 μg) was 3 (50.0%), the “TEAE: Ventricular extrasystoles” value (10 μg) was 0 and the “TEAE: Vomiting” value (10 μg) was 0. For the same compound, the “TEAE: Abdominal distension” value (30 μg) was 0, the “TEAE: Abdominal pain” value (30 μg) was 0 and the “TEAE: Application site erosion” value (30 μg) was 1 (16.7%). The “TEAE: Arrhythmia” value (30 μg) was 0, the “TEAE: Atrioventricular block second degree” value (30 μg) was 0 and the “TEAE: Cardiac Disorders” value (30 μg) was 0. For the same compound, the “TEAE: Decreased appetite” value (30 μg) was 0, the “TEAE: Diarrhea” value (30 μg) was 0 and the “TEAE: Dizziness” value (30 μg) was 1 (16.7%). The “TEAE: Gastrointestinal Disorders” value (30 μg) was 0, the “TEAE: Headache” value (30 μg) was 1 (16.7%) and the “TEAE: Immune System Disorders” value (30 μg) was 1 (16.7%). For the same compound, the “TEAE: Injury associated with device” value (30 μg) was 0, the “TEAE: Injury poisoning and procedural complications” value (30 μg) was 1 (16.7%) and the “TEAE: Metabolism and nutrition disorders” value (30 μg) was 0. For the same compound, the “TEAE: Musculoskeletal and connective tissue disorders” value (30 μg) was 1 (16.7%), the “TEAE: Musculoskeletal chest pain” value (30 μg) was 1 (16.7%) and the “TEAE: Nasopharyngitis” value (30 μg) was 0. The “TEAE: Nausea” value (30 μg) was 0, the “TEAE: Nervous system disorders” value (30 μg) was 1 (16.7%) and the “TEAE: Oropharyngeal pain” value (30 μg) was 0. The “TEAE: Procedural dizziness” value (30 μg) was 1 (16.7%), the “TEAE: Respiratory” value (30 μg) was 0 and the “TEAE: Seasonal allergy” value (30 μg) was 1 (16.7%). For the same compound, the “TEAE: Subjects with at least one event” value (30 μg) was 4 (66.7%), the “TEAE: Ventricular extrasystoles” value (30 μg) was 0 and the “TEAE: Vomiting” value (30 μg) was 0. The vomiting episodes (100 μg dose, 1 subject) was 1 episode, the “TEAE: Abdominal distension” value (100 μg) was 0 and the “TEAE: Abdominal pain” value (100 μg) was 0. For the same compound, the “TEAE: Application site erosion” value (100 μg) was 0, the “TEAE: Arrhythmia” value (100 μg) was 1 (16.7%) and the “TEAE: Atrioventricular block second degree” value (100 μg) was 0. For the same compound, the “TEAE: Cardiac Disorders” value (100 μg) was 1 (16.7%), the “TEAE: Decreased appetite” value (100 μg) was 0 and the “TEAE: Diarrhea” value (100 μg) was 0. For the same compound, the “TEAE: Dizziness” value (100 μg) was 0, the “TEAE: Gastrointestinal Disorders” value (100 μg) was 1 (16.7%) and the “TEAE: Headache” value (100 μg) was 1 (16.7%). The “TEAE: Immune System Disorders” value (100 μg) was 0, the “TEAE: Injury associated with device” value (100 μg) was 0 and the “TEAE: Injury poisoning and procedural complications” value (100 μg) was 0. For the same compound, the “TEAE: Metabolism and nutrition disorders” value (100 μg) was 0, the “TEAE: Musculoskeletal and connective tissue disorders” value (100 μg) was 0 and the “TEAE: Musculoskeletal chest pain” value (100 μg) was 0. The “TEAE: Nasopharyngitis” value (100 μg) was 0, the “TEAE: Nausea” value (100 μg) was 1 (16.7%) and the “TEAE: Nervous system disorders” value (100 μg) was 2 (33.3%). The “TEAE: Oropharyngeal pain” value (100 μg) was 0, the “TEAE: Procedural dizziness” value (100 μg) was 0 and the “TEAE: Respiratory” value (100 μg) was 0. The “TEAE: Seasonal allergy” value (100 μg) was 0, the “TEAE: Ventricular extrasystoles” value (100 μg) was 0 and the “TEAE: Vomiting” value (100 μg) was 1 (16.7%). The vomiting episodes (150 μg dose, 4 subjects) was 9 episodes, the “TEAE: Abdominal distension” value (150 μg) was 2 (3.3%) and the “TEAE: Abdominal pain” value (150 μg) was 0. The “TEAE: Application site erosion” value (150 μg) was 0, the “TEAE: Arrhythmia” value (150 μg) was 0 and the “TEAE: Atrioventricular block second degree” value (150 μg) was 0. The “TEAE: Cardiac Disorders” value (150 μg) was 0, the “TEAE: Decreased appetite” value (150 μg) was 2 (33.3%) and the “TEAE: Diarrhea” value (150 μg) was 0. The “TEAE: Dizziness” value (150 μg) was 2 (33.3%).
